The source of these data is the supplement of paper PMC10307832.

Common to all, as to experiment: relative viability (nuclei count vs DMSO), 5 days (fraction); higher = more cells survive
Compound in the assay “Quizartinib + Pemetrexed”: CC(C)(C)c1cc(NC(=O)Nc2ccc(-c3cn4c(n3)sc3cc(OCCN5CCOCC5)ccc34)cc2)no1 [Quizartinib] + Nc1nc2[nH]cc(CCc3ccc(C(=O)N[C@@H](CCC(=O)O)C(=O)O)cc3)c2c(=O)[nH]1 [Pemetrexed] (partner 0.2 µM)
In a few lines: (§1)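 The day after seeding in 1536-well plates, lung cancer cell lines were treated by pin tool with a single drug, or with a fixed anchor-drug dose together with five library-drug doses (not always all listed) in √10 steps. After 5 days, a combined fix-and-stain solution (final 0.05% Triton X-100, 1% formaldehyde, 1 ug/ml Hoechst) was added. Nuclei counted on 4× images gave relative viability as treated counts over vehicle counts, reported as the median of duplicate plates.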

Compound in the assay “Quizartinib + Linsitinib”: CC(C)(C)c1cc(NC(=O)Nc2ccc(-c3cn4c(n3)sc3cc(OCCN5CCOCC5)ccc34)cc2)no1 [Quizartinib] + C[C@]1(O)C[C@@H](c2nc(-c3ccc4ccc(-c5ccccc5)nc4c3)c3c(N)nccn32)C1 [Linsitinib] (partner 1 µM)
In a few lines: as §1

Compound in the assay “YM155 + Lapatinib”: COCC[n+]1c2c(n(Cc3cnccn3)c1C)C(=O)c1ccccc1C2=O [YM155] + CS(=O)(=O)CCNCc1ccc(-c2ccc3ncnc(Nc4ccc(OCc5cccc(F)c5)c(Cl)c4)c3c2)o1 [Lapatinib] (partner 2 µM)
The method in brief: as §1

Compound in the assay “Quizartinib + Dasatinib”: CC(C)(C)c1cc(NC(=O)Nc2ccc(-c3cn4c(n3)sc3cc(OCCN5CCOCC5)ccc34)cc2)no1 [Quizartinib] + Cc1nc(Nc2ncc(C(=O)Nc3c(C)cccc3Cl)s2)cc(N2CCN(CCO)CC2)n1 [Dasatinib] (partner 0.075 µM)
In a few lines:
as §1

As to NCI-H1395, the relative viability in the assay with Quizartinib + Pemetrexed (first compound 0.001 µM) was determined as 0.802; in the assay with Quizartinib + Pemetrexed (first compound 0.003162 µM), 0.927; with Quizartinib + Pemetrexed (first compound 0.01 µM) it was 0.717; with Quizartinib + Pemetrexed (first compound 0.03162 µM) it was 0.74; with Quizartinib + Pemetrexed (first compound 0.1 µM) it was 1; with Quizartinib + Linsitinib (first compound 0.001 µM), 1.06. Moreover, the relative viability with Quizartinib + Linsitinib (first compound 0.003162 µM) was determined as 1.37; with Quizartinib + Linsitinib (first compound 0.01 µM), 0.985; in the assay with Quizartinib + Linsitinib (first compound 0.03162 µM) it was 1.04; in the assay with Quizartinib + Linsitinib (first compound 0.1 µM), 1.22; in the assay with YM155 + Lapatinib (first compound 0.002 µM), 1.06; with YM155 + Lapatinib (first compound 0.006325 µM), 1.05. The relative viability was determined as 1.25 with YM155 + Lapatinib (first compound 0.02 µM); 1.13 with YM155 + Lapatinib (first compound 0.06325 µM); 0.384 in the assay with Quizartinib + Dasatinib (first compound 0.001 µM); 0.418 with Quizartinib + Dasatinib (first compound 0.003162 µM); 0.388 in the assay with Quizartinib + Dasatinib (first compound 0.01 µM); 0.421 with Quizartinib + Dasatinib (first compound 0.03162 µM). Further, the relative viability with Quizartinib + Dasatinib (first compound 0.1 µM) was determined as 0.413.

With NCI-H1437, the relative viability with Quizartinib + Pemetrexed (first compound 0.001 µM) turned out to be 0.314; with Quizartinib + Pemetrexed (first compound 0.003162 µM), 0.302; with Quizartinib + Pemetrexed (first compound 0.01 µM), 0.305; with Quizartinib + Pemetrexed (first compound 0.03162 µM) it was 0.335; with Quizartinib + Pemetrexed (first compound 0.1 µM), 0.32; with Quizartinib + Linsitinib (first compound 0.001 µM), 0.954. Further, the relative viability with Quizartinib + Linsitinib (first compound 0.003162 µM) was determined as 0.897; in the assay with Quizartinib + Linsitinib (first compound 0.01 µM), 1.01; in the assay with Quizartinib + Linsitinib (first compound 0.03162 µM) it was 0.898; in the assay with Quizartinib + Linsitinib (first compound 0.1 µM) it was 0.706; with YM155 + Lapatinib (first compound 0.002 µM) it was 0.72; with YM155 + Lapatinib (first compound 0.006325 µM), 0.784. Further, the relative viability with YM155 + Lapatinib (first compound 0.02 µM) came out at 0.767; with YM155 + Lapatinib (first compound 0.06325 µM) it was 0.708; with Quizartinib + Dasatinib (first compound 0.001 µM), 0.375; with Quizartinib + Dasatinib (first compound 0.003162 µM), 0.467; with Quizartinib + Dasatinib (first compound 0.01 µM), 0.384; in the assay with Quizartinib + Dasatinib (first compound 0.03162 µM), 0.27. Also, in the assay with Quizartinib + Dasatinib (first compound 0.1 µM), the relative viability turned out to be 0.363.

For NCI-H1563, the relative viability in the assay with Quizartinib + Pemetrexed (first compound 0.001 µM) turned out to be 1.18; with Quizartinib + Pemetrexed (first compound 0.003162 µM), 0.788; with Quizartinib + Pemetrexed (first compound 0.01 µM), 0.8; with Quizartinib + Pemetrexed (first compound 0.03162 µM), 0.717; in the assay with Quizartinib + Pemetrexed (first compound 0.1 µM), 0.76; with Quizartinib + Linsitinib (first compound 0.001 µM) it was 1.01. Also, the relative viability was determined as 1.04 with Quizartinib + Linsitinib (first compound 0.003162 µM); 1.17 with Quizartinib + Linsitinib (first compound 0.01 µM); 0.972 with Quizartinib + Linsitinib (first compound 0.1 µM); 0.924 with YM155 + Lapatinib (first compound 0.002 µM); 0.994 in the assay with YM155 + Lapatinib (first compound 0.006325 µM); 0.986 with YM155 + Lapatinib (first compound 0.02 µM). The relative viability with YM155 + Lapatinib (first compound 0.06325 µM) was 1.05; with Quizartinib + Dasatinib (first compound 0.001 µM), 0.523; in the assay with Quizartinib + Dasatinib (first compound 0.003162 µM) it was 0.505; with Quizartinib + Dasatinib (first compound 0.01 µM), 0.458; with Quizartinib + Dasatinib (first compound 0.03162 µM), 0.468; in the assay with Quizartinib + Dasatinib (first compound 0.1 µM) it was 0.493.

NCI-H1651: the relative viability with Quizartinib + Pemetrexed (first compound 0.001 µM) was determined as 0.524; with Quizartinib + Pemetrexed (first compound 0.003162 µM), 0.594; in the assay with Quizartinib + Pemetrexed (first compound 0.01 µM), 0.665; with Quizartinib + Pemetrexed (first compound 0.03162 µM), 0.596; with Quizartinib + Pemetrexed (first compound 0.1 µM) it was 0.59; in the assay with Quizartinib + Linsitinib (first compound 0.001 µM), 0.858. For the same cell line, the relative viability with Quizartinib + Linsitinib (first compound 0.003162 µM) stood at 0.946; with Quizartinib + Linsitinib (first compound 0.01 µM) it was 1.06; in the assay with Quizartinib + Linsitinib (first compound 0.03162 µM), 0.727; with Quizartinib + Linsitinib (first compound 0.1 µM), 0.93; with YM155 + Lapatinib (first compound 0.002 µM), 0.869; with YM155 + Lapatinib (first compound 0.006325 µM), 0.861. The relative viability came out at 0.726 in the assay with YM155 + Lapatinib (first compound 0.02 µM); 0.601 in the assay with YM155 + Lapatinib (first compound 0.06325 µM); 0.306 with Quizartinib + Dasatinib (first compound 0.001 µM); 0.429 with Quizartinib + Dasatinib (first compound 0.003162 µM); 0.392 with Quizartinib + Dasatinib (first compound 0.01 µM); 0.296 with Quizartinib + Dasatinib (first compound 0.03162 µM). Moreover, the relative viability with Quizartinib + Dasatinib (first compound 0.1 µM) was determined as 0.441.

With NCI-H1666, the relative viability with Quizartinib + Pemetrexed (first compound 0.001 µM) was 0.772; with Quizartinib + Pemetrexed (first compound 0.003162 µM) it was 0.822; with Quizartinib + Pemetrexed (first compound 0.01 µM), 0.85; with Quizartinib + Pemetrexed (first compound 0.03162 µM) it was 0.827; with Quizartinib + Pemetrexed (first compound 0.1 µM), 0.914; with Quizartinib + Linsitinib (first compound 0.001 µM), 0.771. Moreover, the relative viability with Quizartinib + Linsitinib (first compound 0.003162 µM) is 0.753; with Quizartinib + Linsitinib (first compound 0.01 µM), 0.868; in the assay with Quizartinib + Linsitinib (first compound 0.03162 µM) it was 0.631; with Quizartinib + Linsitinib (first compound 0.1 µM) it was 0.865; with YM155 + Lapatinib (first compound 0.002 µM), 0.629; with YM155 + Lapatinib (first compound 0.02 µM), 0.77. In addition, the relative viability in the assay with YM155 + Lapatinib (first compound 0.06325 µM) worked out at 0.562; with Quizartinib + Dasatinib (first compound 0.001 µM), 0.836; with Quizartinib + Dasatinib (first compound 0.003162 µM), 0.782; in the assay with Quizartinib + Dasatinib (first compound 0.01 µM) it was 0.737; with Quizartinib + Dasatinib (first compound 0.03162 µM), 0.582; with Quizartinib + Dasatinib (first compound 0.1 µM), 0.757.

Consider NCI-H1734, for which the relative viability amounted to 0.375 with Quizartinib + Pemetrexed (first compound 0.001 µM); 0.412 with Quizartinib + Pemetrexed (first compound 0.003162 µM); 0.407 in the assay with Quizartinib + Pemetrexed (first compound 0.01 µM); 0.457 with Quizartinib + Pemetrexed (first compound 0.03162 µM); 0.412 with Quizartinib + Pemetrexed (first compound 0.1 µM); 0.752 with Quizartinib + Linsitinib (first compound 0.001 µM). The relative viability with Quizartinib + Linsitinib (first compound 0.003162 µM) was found to be 0.871; with Quizartinib + Linsitinib (first compound 0.01 µM), 0.901; in the assay with Quizartinib + Linsitinib (first compound 0.03162 µM), 0.855; with Quizartinib + Linsitinib (first compound 0.1 µM) it was 0.842; with YM155 + Lapatinib (first compound 0.002 µM), 1.09; with YM155 + Lapatinib (first compound 0.006325 µM) it was 1.08. For the same cell line, the relative viability turned out to be 1.13 with YM155 + Lapatinib (first compound 0.02 µM); 0.969 with YM155 + Lapatinib (first compound 0.06325 µM); 0.408 with Quizartinib + Dasatinib (first compound 0.001 µM); 0.421 in the assay with Quizartinib + Dasatinib (first compound 0.003162 µM); 0.431 with Quizartinib + Dasatinib (first compound 0.01 µM); 0.481 with Quizartinib + Dasatinib (first compound 0.03162 µM). For the same cell line, the relative viability with Quizartinib + Dasatinib (first compound 0.1 µM) was determined as 0.453.

As to NCI-H1755, the relative viability in the assay with Quizartinib + Pemetrexed (first compound 0.001 µM) was 0.316; in the assay with Quizartinib + Pemetrexed (first compound 0.003162 µM) it was 0.399; with Quizartinib + Pemetrexed (first compound 0.01 µM), 0.412; with Quizartinib + Pemetrexed (first compound 0.03162 µM), 0.464; with Quizartinib + Pemetrexed (first compound 0.1 µM) it was 0.378; with Quizartinib + Linsitinib (first compound 0.001 µM), 0.611. Moreover, the relative viability with Quizartinib + Linsitinib (first compound 0.003162 µM) came out at 0.997; with Quizartinib + Linsitinib (first compound 0.01 µM) it was 0.963; in the assay with Quizartinib + Linsitinib (first compound 0.03162 µM), 1; with Quizartinib + Linsitinib (first compound 0.1 µM), 0.99; with YM155 + Lapatinib (first compound 0.002 µM) it was 1.04; with YM155 + Lapatinib (first compound 0.006325 µM), 1.03. The relative viability with YM155 + Lapatinib (first compound 0.02 µM) was found to be 1.01; with YM155 + Lapatinib (first compound 0.06325 µM), 1.04; with Quizartinib + Dasatinib (first compound 0.001 µM), 0.389; with Quizartinib + Dasatinib (first compound 0.003162 µM), 0.367; with Quizartinib + Dasatinib (first compound 0.01 µM), 0.409; with Quizartinib + Dasatinib (first compound 0.03162 µM) it was 0.429. The relative viability with Quizartinib + Dasatinib (first compound 0.1 µM) was found to be 0.404.

Regarding NCI-H1792, the relative viability was 0.624 with Quizartinib + Pemetrexed (first compound 0.001 µM); 0.79 with Quizartinib + Pemetrexed (first compound 0.003162 µM); 0.913 with Quizartinib + Pemetrexed (first compound 0.01 µM); 0.69 in the assay with Quizartinib + Pemetrexed (first compound 0.03162 µM); 0.713 with Quizartinib + Pemetrexed (first compound 0.1 µM); 0.334 with Quizartinib + Linsitinib (first compound 0.001 µM). The relative viability stood at 0.496 with Quizartinib + Linsitinib (first compound 0.003162 µM); 0.602 in the assay with Quizartinib + Linsitinib (first compound 0.01 µM); 0.466 with Quizartinib + Linsitinib (first compound 0.03162 µM); 0.587 with Quizartinib + Linsitinib (first compound 0.1 µM); 0.95 with YM155 + Lapatinib (first compound 0.002 µM); 0.92 in the assay with YM155 + Lapatinib (first compound 0.006325 µM). The relative viability with YM155 + Lapatinib (first compound 0.02 µM) amounted to 0.943; with YM155 + Lapatinib (first compound 0.06325 µM), 0.895; with Quizartinib + Dasatinib (first compound 0.003162 µM) it was 0.742; with Quizartinib + Dasatinib (first compound 0.01 µM), 0.84; with Quizartinib + Dasatinib (first compound 0.03162 µM) it was 0.658; with Quizartinib + Dasatinib (first compound 0.1 µM), 0.836.
